Experimental data reported in patent US20150245596A1, “MELANOCORTIN RECEPTOR MUTANT MOUSE AND USES THEREOF” (THE GENERAL HOSPITAL CORPORATION, priority 2012, published 2015).
“Also recorded” adds a separate entry of the source.

Columns and labels:
redhead-BRaf^CA melanoma = assay: In vivo PLX4720 study, mouse chow containing PLX4720; conditions: 4 weeks of mouse chow containing 2% PLX4720 by weight, n=3
Protocol: At 6-10 weeks of age the dorsal fur was trimmed using animal shears with a 0.25 mm head and the mice were treated topically with 20 mg/ml tamoxifen for 5 consecutive days. […] For in vivo PLX4720 studies, animals were given ad libitum mouse chow containing 2% PLX4720 by weight or control chow acquired from Plexxikon Inc. All studies and procedures involving animal subjects were approved by the Institutional Animal Care and Use Committees of Massachusetts General Hospital and Dana-Farber Harvard Cancer Center and were conducted strictly in accordance with the approved animal handling protocol.

[1] = system: primary cell line derived from one of the redhead (BRaf^V600E-Mc1r^e/e) melanomas; conditions: redhead-derived melanoma cells
Protocol: (§1) Tumor cells were digested overnight in 10 mg/ml collagenase and 1 mg/ml hyaluronidase. Initially tumor cells were grown in RPMI media with HEPES and 20% serum. Subsequently tumor cells were grown in DMEM media with 10% serum.

[2] = system: primary cell line derived from one of the redhead (BRaf^V600E-Mc1r^e/e) melanomas; assay: cells; conditions: Mus musculus, 72 h, read-out: GI50, melanoma cell proliferation
Protocol: as §1

[3] = system: melanocytic markers (Mitf, Dct, Tyrp1 mRNA); assay: Quantitative RT-PCR of melanocytic markers in primary cultured tumor cells; assay type: cell-based, mouse; conditions: 2 μM PLX4720, mRNA normalized to 18s rRNA and 0 h timepoint
Protocol: RNA was harvested from primary cultured tumor cells treated for varying times with forskolin or PLX4720 using the RNeasy Plus mini kit (QIAGEN). mRNA expression of melanocytic markers was determined using intron-spanning mouse-specific primers with Kapa SYBR FAST qPCR master mix (KAPA BIOSYSTEMS). Expression was normalized to 18s rRNA and 0 hour time-points.

SMILES	melanoma growth in vivo (redhead-BRaf^CA melanoma)	melanoma cell proliferation in vitro [1]	GI50 [2] [µM]	expression of melanocytic markers [3]
CCCS(=O)(=O)Nc1ccc(F)c(C(=O)c2c[nH]c3ncc(Cl)cc23)c1F [PLX4720]	blocked tumor cell growth in vivo; also recorded: blocks melanoma growth in vivo	prevented melanoma cell proliferation in vitro	0.5	upregulates
N#CC(=C(/N)Sc1ccccc1N)/C(C#N)=C(\N)Sc1ccccc1N [U0126]		prevented melanoma cell proliferation in vitro	2	
